According to publication PMC12333940, “A prometabolite strategy inhibits cardiometabolic disease in an ApoE^–/– murine model of atherosclerosis” (JCI Insight, 2025):
“And” between values parts separate entries of the source, which are not always exact repeats. Identical values can stand only once.

Key:
ApoE^–/– mice on an HFD [1] = experiment: Blood chemical analysis of plasma; assay type: in vivo, mouse; set-up: Lipase / ALT / Altherogenic Lipids (Chol-HDL) / HDL-C / LDL-C: unit not given here
Procedure: SerBut water was pH adjusted using 10 M NaOH to a final pH of 7.4. […] After 6 weeks, mice were euthanized. […] The liver was harvested and part was homogenized in tissue protein extraction reagent buffer (Invitrogen, 78510) supplemented with protease inhibitor mini tablets (Thermo Fisher Scientific, PIA32955) for Western blotting and qPCR. […] Blood chemical analysis was performed on an Alfa […] Chemistry Analyzer. Reagent kits from Alfa Wasserman were used according to manufacturer's instructions to analyze plasma: lipase (catalog SA1045), HDL-C (catalog SA2038, LDL-C (catalog SA1040), AST (catalog SA1053), ALT (catalog SA1052). A LEGENDPlex was utilized to analyze the concentrations of inflammatory cytokines (BioLegend).

NF-κB = experiment: NF-κB-SEAP reporter assay in RAW-Blue cells after LPS; assay type: cell-based; settings: for NFkB OD: then 200 ng/mL LPS 6 h
Procedure: NF-κB inhibition was assayed using the NF-κB-SEAP reporter cell line, RAW-Blue (InvivoGen, raw-sp). Cells were plated in round-bottom 96-well plates at 100,000 cells per well and cocultured with different concentrations of either NaBut or SerBut (0.15–12 mM) for 24 hours. After the addition of butyrate, cells were rinsed with phosphate buffered saline (PBS) and then stimulated with 200 ng/mL LPS in media for 6 hours.

RAW 264.7 macrophages = experiment: Flow cytometry of iNOS, CD80, CD86 in LPS-stimulated RAW 264.7; assay type: cell-based; settings: for CD80+ % Live / CD86+ % Live / iNOS+ %Live: listed as SB
Procedure: RAW 264.7 (ATCC, TIB-71) macrophages were cultured at 37°C and 5% CO2 in DMEM (Gibco) supplemented with 1 mM HEPES, 1 mM sodium pyruvate, 10% FBS, and penicillin/streptomycin. Cells were plated in round-bottom 96-well plates at 100,000 cells per well and incubated with different concentrations of either NaBut or SerBut (0.15–12 mM) for 24 hours. […] The cell culture supernatant was collected and analyzed by LEGENDPlex to analyze the concentrations of cytokines (BioLegend). Cell phenotype was analyzed using flow cytometry (Cytek Aurora).
Flow cytometry was performed using a BD LSRFortessa or a Cytek Aurora full-spectrum cytometer. Data were analyzed using FlowJo version 10.8.0. eFluor 780 Viability Dye (Invitrogen, 65-0865-14) and antibodies against the following markers were used in the RAW 264.7 macrophage in vitro studies: CD86 (BV421; BD Horizon, catalog 564198), CD80 (BC650; BioLegend, clone 16-10A1, catalog 104732), and iNOS (APC; Invitrogen, clone CXNFT, catalog 17-5920-9). Live/Dead Blue (Invitrogen, 123105A) and antibodies against the following markers were used in the atherosclerosis mouse models: F4/80 (FITC; BioLegend, clone BM8, catalog 123108), CD3e (BV605; BD Biosciences, clone 145-2C11, catalog 563565), CD4 (BUV496; BD Biosciences, clone GK 1.5, catalog 612952), RORγt (AF647; BD Biosciences, clone Q31-378, catalog 562682), FoxP3 (AF488, BD Biosciences, clone MF23, catalog 560403), CCR2 (PE; R&D Systems, catalog FAB5538P), Ly6C (APC-Cy7; BioLegend, catalog 128026, clone HK1.4), Ly6G (AF488; BioLegend, catalog 127626), CD8 (APC-Cy7; BioLegend, clone 53-6.7, catalog 100714), CD45 (BUV805; Invitrogen, clone 30-F11, catalog 368-0451-82), and CD25 (PerCP-Cy5.5; BioLegend, clone PC61, catalog 102030).

ApoE^–/– mice on an HFD [2] = experiment: Histological grading and scoring of livers; assay type: in vivo, mouse; set-up: key to Liver Grading and Staging: Lobular inflammation (CD3+): one focus in which more than 10 periductal CD3^+ lymphocytes are found in an ×200 field; 2 to 5 instances of more than 10 periductal CD3^+ immune cells in an ×200 field; 3: Any sample exceeding this threshold
Procedure: For 6 weeks, mice were freely administered water, water containing 150 mM SerBut, or water containing an equimolar amount of NaBut. SerBut water was pH adjusted using 10 M NaOH to a final pH of 7.4. […] In concert, mice were fed an HFD with 42% from fat and 0.2% total cholesterol (Envigo, TD-88137) ad libitum. After 6 weeks, mice were euthanized. The lMLNs, ILNs, spleen, heart, and aorta were harvested and processed for flow cytometry analysis ([67]). The liver was harvested and part was homogenized in tissue protein extraction reagent buffer (Invitrogen, 78510) supplemented with protease inhibitor mini tablets (Thermo Fisher Scientific, PIA32955) for Western blotting and qPCR. The remaining liver was fixed with 4% paraformaldehyde and embedded in paraffin for histological analysis.
Sections (8 μm thick) were stained. Digital image files were created with an Olympus VS200 Research Slide Scanner (Olympus/Evident) with a Hamamatsu ORca-Fusion camera (Hamamatsu Photonics) at ×40 magnification. Individual images were created with the OlyVIA Viewer software (Olympus/Evident). Scoring and grading was performed by a pathologist as previously described ([48]). Immunohistochemistry grading was informed by age-matched WT controls. In age-matched WT controls, CD3^+ immune cells were seen scattered without distinct aggregate formation nor associated tissue reaction. In an ×400 field, we observed up to 25 CD3^+ immune cells scattered in an even distribution, with rare events of up to 10 periductal CD3^+ immune cells but with no associated ductal or parenchymal reaction. […] Furthermore, a score of 2 corresponds to 2 to 5 instances of more than 10 periductal CD3^+ immune cells in an ×200 field. Any sample exceeding this threshold was scored a 3.

[3] = Blood Chemistry, 6wk, individual mice, experiments 1 and 2
[4] = 4 mM, 12 Hour LPS stim after Butyrate treament
[5] = 4 mM, 12 hour LPS stim before butyrate treatment
[6] = 12 mM, 12 Hour LPS stim after Butyrate treament
[7] = 12 mM, 12 hour LPS stim before butyrate treatment
[8] = liver, individual mice, 150 mM ad libitum for 6 weeks, HFD

CCCC(=O)OC[C@H](N)C(=O)O [SerBut, O-butyryl-L-serine]
lipase in the plasma (ApoE^–/– mice on an HFD [1]; 6 weeks): no effect
total cholesterol or triglycerides in the plasma (ApoE^–/– mice on an HFD [1]; 6 weeks): Neither SerBut nor NaBut influenced
LDL-C as a fraction of total cholesterol (ApoE^–/– mice on an HFD [1]; 6 weeks, 150 mM in drinking water, HFD): significantly reduced
ratio of HDL to total cholesterol (ApoE^–/– mice on an HFD [1]; 6 weeks, compared with NaBut treatment): significantly increased
plasma ALT and AST (ApoE^–/– mice on an HFD [1]; 6 weeks, compared with both water control and NaBut groups): significantly reduced
Altherogenic Lipids (Chol-HDL) (ApoE^–/– mice on an HFD [1]; [3]): 948 and 1048 and 1026 and 1018 and 1032 and 880 and 848 and 784 and 1074 and 722 and 776 and 780 and 800 and 768 and 1080 and 736 and 882
HDL-C (ApoE^–/– mice on an HFD [1]; [3]): 38 and 52 and 46 and 44 and 48 and 54 and 56 and 42
LDL-C (ApoE^–/– mice on an HFD [1]; Blood Chemistry, individual mice, experiments 1 and 2): 320 and 324 and 382 and 332 and 336 and 378 and 454 and 290 and 460 and 258 and 354 and 282 and 292 and 318 and 416 and 268 and 238
ALT (ApoE^–/– mice on an HFD [1]; plasma at 6 weeks, 150 mM in drinking water ad libitum with HFD, individual mice): 30.92 and 18.78 and 25.96 and 23.5 and 26.22 and 26.76 and 26.18 and 26.36 and 22.68
NFkB OD (NF-κB; 1.3 mM 24 h): 0.215 and 0.212 and 0.201 and 0.244 and 0.265 and 0.185
NFkB OD (NF-κB; 4 mM 24 h): 0.151 and 0.171 and 0.176 and 0.19 and 0.152
NFkB OD (NF-κB; 12 mM 24 h): 0.101 and 0.118 and 0.1 and 0.099 and 0.117 and 0.087
LPS-induced NF-κB activation (NF-κB; 12 mM, comparable to 1.3 mM NaBut): significantly suppressed LPS-induced NF-κB activation
CD80 MFI (RAW 264.7 macrophages; 1.3 mM 24 h, then LPS 6 h): 22757 and 22379 and 22182 and 22697 and 22413
iNOS MFI (RAW 264.7 macrophages; 1.3 mM 24 h, then LPS 6 h): 133476 and 131849 and 120651 and 126894 and 131328
CD80 MFI (RAW 264.7 macrophages; 4 mM 24 h, then LPS 6 h): 22258 and 21750 and 21713 and 21977 and 22364 and 21487
iNOS MFI (RAW 264.7 macrophages; 4 mM 24 h, then LPS 6 h): 123258 and 124792 and 115548 and 125159 and 131532 and 119298
CD80+ % Live (RAW 264.7 macrophages; [4]): 20.6% and 26% and 25.2%
CD86+ % Live (RAW 264.7 macrophages; [4]): 6.07% and 6.44% and 6.25%
iNOS+ %Live (RAW 264.7 macrophages; [4]): 57.8% and 66.6% and 65.8%
CD80+ % Live (RAW 264.7 macrophages; [5]): 45.8% and 43.1% and 44.5%
CD86+ % Live (RAW 264.7 macrophages; [5]): 14.9% and 14.1% and 14.2%
iNOS+ %Live (RAW 264.7 macrophages; [5]): 40.8% and 45.6% and 40.9%
iNOS and CD80 expression after LPS stimulation (RAW 264.7 macrophages; 12 mM): significantly reduced
CD80 MFI (RAW 264.7 macrophages; 12 mM 24 h, then 200 ng/mL LPS 6 h): 20826 and 21079 and 20195 and 20493 and 21214 and 20412
iNOS MFI (RAW 264.7 macrophages; 12 mM 24 h, then LPS 6 h): 95330 and 101513 and 93052 and 99228 and 94381 and 96644
CD80+ % Live (RAW 264.7 macrophages; [6]): 13.7% and 18.3% and 22.8%
CD86+ % Live (RAW 264.7 macrophages; [6]): 6.99% and 8.29% and 9.22%
iNOS+ %Live (RAW 264.7 macrophages; [6]): 26.5% and 43.9% and 50.9%
CD80+ % Live (RAW 264.7 macrophages; [7]): 43.1% and 48% and 48.3%
CD86+ % Live (RAW 264.7 macrophages; [7]): 14.5% and 13.5% and 15.9%
iNOS+ %Live (RAW 264.7 macrophages; [7]): 31.3% and 49.4% and 36.1%
iNOS-suppressing capacity during longer LPS stimulations (RAW 264.7 macrophages; high doses): maintained
CD3^+ immune cell infiltration into the livers, lobular inflammation (ApoE^–/– mice on an HFD [2]; 6 weeks): Neither SerBut nor NaBut significantly reduced
hepatocellular nuclear hypertrophy (ApoE^–/– mice on an HFD [2]; 6 weeks): suppressed
liver steatosis (macrovesicular fat) score (ApoE^–/– mice on an HFD [2]; 6 weeks): significantly suppressed
overall summed histological liver score (ApoE^–/– mice on an HFD [2]; 6 weeks): reduced liver pathology
Liver Grading and Staging: Balooning Grade, Hypertrophy (ApoE^–/– mice on an HFD [2]; [8]): 2 and 1 and 0
Liver Grading and Staging: Lobular inflammation (CD3+) (ApoE^–/– mice on an HFD [2]; [8]): 1 and 0 and 2
Liver Grading and Staging: Steatosis Grade, Macro fat (ApoE^–/– mice on an HFD [2]; [8]): 0 and 2
NAS score (steatosis, inflammation, Ballooning) (ApoE^–/– mice on an HFD [2]; [8]): 3 and 2 and 6 and 1
